The assay deals with T1, AeOBP22 (odorant binding protein 22) (Aedes aegypti, UniProt Q1HRL7).
T1 construct: mature form, residues 17-138, signal peptide (1-16) removed, added N-terminal initiator Met, no tags (123 residues); monomer; 13C/15N labelled for NMR
T1 sequence (Q1HRL7 17-138): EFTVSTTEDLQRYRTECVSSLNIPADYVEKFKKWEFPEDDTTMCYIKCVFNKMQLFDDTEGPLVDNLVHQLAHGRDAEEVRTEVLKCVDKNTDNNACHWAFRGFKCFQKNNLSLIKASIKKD
Description: fluorescence-based binding assay (preliminary); binding confirmed by NMR.

A word on the Kd: it is the equilibrium constant for the complex coming apart. Higher therefore signals weaker binding. `CCCCC/C=C\C/C=C\C/C=C\C/C=C\CCCC(=O)O` [arachidonic acid] came in with a Kd of roughly 230 nM.

These data come from article PMC6439253, “Complete NMR chemical shift assignments of odorant binding protein 22 from the yellow fever mosquito, Aedes aegypti, bound to arachidonic acid” (Biomolecular Nmr Assignments, 2019).
